Here are results for nine molecules from ChEMBL document CHEMBL1201862, “PubChem BioAssay data set” (2004).

Some test systems named below: SW-620; MOLT-4; OVCAR-4; UACC-62; UO-31; OVCAR-8; CAKI-1; SNB-19; HOP-62; CCRF-CEM; EKVX; SN12C; NCI-H226; SK-MEL-2; SF-539; NCI-H23; UACC-257.
Experiment in all cases: NCI-60 cell line screen, 48 h

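Cultured in 96-well plates, cells were exposed to test compound for 48 hours across five concentrations. GI50: concentration for 50% inhibition of growth.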 Active and inactive are the calls of the source. No stated cut-off is given here; in the data, active = GI50 up to about 1.1 µM and inactive = higher. Where only a bound is given, the exact number is not on record here.

With `CCCCN/C(=N/C#N)NCc1ccccc1`, the GI50 in the test with SW-620, with MOLT-4, in the test with OVCAR-4, in the test on UACC-62, in the test with UO-31 and in the test with OVCAR-8 was > 100 µM (inactive) in each case. For the same molecule, the GI50 with CAKI-1, in the test on SNB-19, in the test on HOP-62, with CCRF-CEM, with EKVX and in the test on SN12C was > 100 µM (inactive) in each case. Besides, the GI50 with NCI-H226, with SK-MEL-2, in the test on SF-539 and in the test with NCI-H23 was > 100 µM (inactive) each time.
Consider `CC(=O)OCCc1cccnc1/C=N/O`, for which the GI50 in the test on SW-620, in the test with MOLT-4, in the test on OVCAR-4, in the test with UACC-62, in the test on UO-31 and in the test on UACC-257 was > 100 µM (inactive) throughout. Also, the GI50 in the test with OVCAR-8, in the test on CAKI-1, with SNB-19, with HOP-62, in the test on CCRF-CEM and with EKVX was > 100 µM (inactive) throughout. Moreover, the GI50 in the test with SN12C is > 100 µM (inactive); in the test with NCI-H226 it was 77.6 µM (inactive); in the test with SK-MEL-2 it was > 100 µM (inactive); in the test with SF-539, > 100 µM (inactive); with NCI-H23, > 100 µM (inactive).
In the case of `CCN1/C(=C/C(C)=C/c2sc3ccccc3[n+]2CC)Sc2ccccc21`, the GI50 in the test with SW-620 is 0.122 µM (active); with MOLT-4, 0.0637 µM (active); with OVCAR-4, 0.361 µM (active); with UACC-62, 0.0927 µM (active); with UO-31 it was 0.0811 µM (active); in the test with OVCAR-8, 0.0948 µM (active). Moreover, the GI50 is 0.203 µM (active) with CAKI-1; 0.0214 µM (active) in the test with SNB-19; 0.122 µM (active) in the test with HOP-62; 0.0261 µM (active) with CCRF-CEM; 0.0885 µM (active) with EKVX; 0.234 µM (active) in the test on SN12C. Also, the GI50 in the test on NCI-H226 was 0.0625 µM (active); with SK-MEL-2 it was 0.201 µM (active); in the test with SF-539, 0.265 µM (active); with NCI-H23, 0.0415 µM (active).
For the molecule `C(/COc1cccnc1)=N\NC1=NCCN1`, the GI50 in the test with SW-620, in the test on MOLT-4, in the test on OVCAR-4, with UACC-62, in the test with UO-31 and in the test on UACC-257 was > 100 µM (inactive) each time. For the same molecule, the GI50 in the test with OVCAR-8, with CAKI-1, with SNB-19, in the test with HOP-62, in the test with CCRF-CEM and in the test on EKVX was > 100 µM (inactive) throughout. Moreover, the GI50 with SN12C, with NCI-H226, in the test on SK-MEL-2, in the test on SF-539 and in the test with NCI-H23 was > 100 µM (inactive) each time.
As for `O=C1[C@H]2ON(c3ccccc3)C(c3ccco3)[C@H]2C(=O)N1c1ccc(Cc2ccc(N3C(=O)[C@@H]4ON(c5ccccc5)C(c5ccco5)[C@@H]4C3=O)cc2)cc1` (stereo partly drawn), the GI50 in the test with SW-620 was > 100 µM (inactive); with MOLT-4, > 100 µM (inactive); in the test with OVCAR-4 it was > 100 µM (inactive); with UACC-62 it was 85.3 µM (inactive); in the test on UO-31, > 100 µM (inactive); in the test on UACC-257, 47.5 µM (inactive). Moreover, the GI50 with CAKI-1, in the test on HOP-62, with CCRF-CEM, in the test on SN12C, with NCI-H226 and with SK-MEL-2 was > 100 µM (inactive) each time. The GI50 in the test on SF-539 and in the test with NCI-H23 was > 100 µM (inactive) in each case.
`CS(=O)(=O)OCCN1CCN(C(=O)c2cccc3c(Nc4ccc(S(N)(=O)=O)cc4)c4ccccc4nc23)CC1`: the GI50 in the test on SW-620 was > 39.3 µM (inactive); with MOLT-4, > 100 µM (inactive); with OVCAR-4, > 100 µM (inactive); in the test on UACC-62 it was > 100 µM (inactive); in the test on UO-31, > 100 µM (inactive); in the test on UACC-257 it was > 66.7 µM (inactive). In addition, the GI50 is > 100 µM (inactive) with OVCAR-8; > 100 µM (inactive) in the test with CAKI-1; > 49.8 µM (inactive) in the test with SNB-19; > 100 µM (inactive) with HOP-62; > 44.1 µM (inactive) in the test on CCRF-CEM; > 100 µM (inactive) in the test on EKVX. In addition, the GI50 with SN12C, in the test with NCI-H226, in the test with SK-MEL-2, in the test with SF-539 and in the test with NCI-H23 was > 100 µM (inactive) throughout.
For `O=c1oc2c3ccc4ccccc4c3n(Cc3nc4ccccc4[nH]3)c2c2ccccc12`, the GI50 in the test on SW-620 was 2.2 µM (inactive); in the test on MOLT-4, 1.11 µM (active); in the test on OVCAR-4, 24.9 µM (inactive); with UACC-62, 3.28 µM (inactive); with UO-31, 1.95 µM (inactive); with UACC-257 it was 5.01 µM (inactive). Besides, the GI50 in the test on OVCAR-8 was 13.7 µM (inactive); in the test with CAKI-1, 3.77 µM (inactive); with SNB-19, 4.5 µM (inactive); in the test with HOP-62, 4.16 µM (inactive); with CCRF-CEM it was 1.07 µM (active); with EKVX, 23.6 µM (inactive). In addition, the GI50 in the test on SN12C was 3.72 µM (inactive); with NCI-H226, 7.03 µM (inactive); in the test with SK-MEL-2 it was 41.3 µM (inactive); in the test on SF-539 it was 3.54 µM (inactive); with NCI-H23, 4.95 µM (inactive).
Regarding `O=CN/C=C/c1ccc(O)c(O)c1`, the GI50 with SW-620, in the test with MOLT-4, with OVCAR-4, in the test with UACC-62, in the test on UO-31 and in the test with UACC-257 was > 100 µM (inactive) throughout. The GI50 with OVCAR-8, in the test with CAKI-1, in the test on SNB-19, in the test with HOP-62, in the test with CCRF-CEM and in the test with EKVX was > 100 µM (inactive) throughout. For the same molecule, the GI50 with SN12C, in the test with NCI-H226, with SK-MEL-2, in the test with SF-539 and in the test with NCI-H23 was > 100 µM (inactive) in each case.
Regarding `COC(=O)C1=C(C)C(=O)C2(CCCCCC2C(=O)OC)C1` (stereo not drawn), the GI50 in the test on SW-620, in the test on MOLT-4, with OVCAR-4, with UACC-62, in the test on UO-31 and in the test on UACC-257 was > 100 µM (inactive) each time. In addition, the GI50 was > 100 µM (inactive) in the test with OVCAR-8; > 100 µM (inactive) in the test with CAKI-1; > 100 µM (inactive) with SNB-19; 68.7 µM (inactive) with HOP-62; > 100 µM (inactive) in the test on CCRF-CEM; > 100 µM (inactive) with EKVX. The GI50 in the test with SN12C was > 100 µM (inactive); in the test with NCI-H226, > 100 µM (inactive); in the test on SK-MEL-2, > 100 µM (inactive); with SF-539, 63.7 µM (inactive); in the test with NCI-H23, > 100 µM (inactive).
